Data as given in PubChem BioAssay AID1963444 (Molecular Pharmacology Branch, DTP, NCI, 2024).
Where “and” joins values, the source holds several entries; their conditions need not be identical. Equal entries are not always repeated.

Tested on: HSSY-II complex spheroid growth, percent test/control
Test: Anticancer human tumor HSSY-II cell line growth inhibition [Asc];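 note: spheroids exposed to drug for 7 days before reading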
Conditions: for viability, T/C: stronger effect = lower value
Summary of the method: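 Complex spheroids combining tumor cells with HUVEC endothelial cells and human MSCs, at 37 degrees C, 5% CO2; agents tested alone or combined, half-log dilutions from at or near clinical Cmax, or 10 microM if Cmax unknown.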

[1] = curve of first compound, second compound 0.01 µM
[2] = curve of first compound, second compound 0.0316 µM
[3] = curve of first compound, second compound 0.1 µM
[4] = curve of first compound, second compound 0.316 µM
[5] = curve of first compound, second compound 1 µM
[6] = second compound 0.01 µM, first compound 0.00949 µM
[7] = second compound 0.01 µM, first compound 0.03 µM
[8] = second compound 0.01 µM, first compound 0.0949 µM
[9] = second compound 0.01 µM, first compound 0.3 µM
[10] = second compound 0.0316 µM, first compound 0.00949 µM
[11] = second compound 0.0316 µM, first compound 0.03 µM
[12] = second compound 0.0316 µM, first compound 0.0949 µM
[13] = second compound 0.0316 µM, first compound 0.3 µM
[14] = second compound 0.1 µM, first compound 0.00949 µM
[15] = second compound 0.1 µM, first compound 0.03 µM
[16] = second compound 0.1 µM, first compound 0.0949 µM
[17] = second compound 0.1 µM, first compound 0.3 µM
[18] = second compound 0.316 µM, first compound 0.00949 µM
[19] = second compound 0.316 µM, first compound 0.03 µM
[20] = second compound 0.316 µM, first compound 0.0949 µM
[21] = second compound 0.316 µM, first compound 0.3 µM
[22] = second compound 1 µM, first compound 0.00949 µM
[23] = second compound 1 µM, first compound 0.03 µM
[24] = second compound 1 µM, first compound 0.0949 µM
[25] = second compound 1 µM, first compound 0.3 µM

Work on `Cc1nc(N2CCC3(CC2)COC(C)C3N)c(CO)nc1Sc1ccnc(N)c1Cl` (centres undefined) + CNC(C)C(=O)NC1CN(S(=O)(=O)c2cccc(S(=O)(=O)N3CCC4CCC(C(=O)NC(c5ccccc5)c5ccccc5)N4C(=O)C(NC(=O)C(C)NC)C3)c2)CCC2CCC(C(=O)NC(c3ccccc3)c3ccccc3)N2C1=O yielded an IC50 (curve of first compound, second compound 0.00316 µM) greater than 3 µM, an IC50 [1] greater than 3 µM and an IC50 [2] greater than 3 µM. For the same molecule, the IC50 [3] was greater than 3 µM, the IC50 [4] was greater than 3 µM and the IC50 [5] was greater than 3 µM. The viability, T/C (second compound 0.00316 µM, first compound 0.00949 µM) was 104%, the viability, T/C (second compound 0.00316 µM, first compound 0.03 µM) was 102% and the viability, T/C (second compound 0.00316 µM, first compound 0.0949 µM) was 90.9%. The viability, T/C (second compound 0.00316 µM, first compound 0.3 µM) was 92.6%, the viability, T/C (second compound 0.00316 µM, first compound 0.949 µM) was 90.7% and the viability, T/C (second compound 0.00316 µM, first compound 3 µM) was 69.1%. It also gave a viability, T/C [6] of 105%, a viability, T/C [7] of 97.2% and a viability, T/C [8] of 90.8%. It also gave a viability, T/C [9] of 93.7%, a viability, T/C (second compound 0.01 µM, first compound 0.949 µM) of 88.1% and a viability, T/C (second compound 0.01 µM, first compound 3 µM) of 66.9%. For the same molecule, the viability, T/C [10] was 101%, the viability, T/C [11] was 91.2% and the viability, T/C [12] was 95.4%. For the same molecule, the viability, T/C [13] was 85.8%, the viability, T/C (second compound 0.0316 µM, first compound 0.949 µM) was 90.7% and the viability, T/C (second compound 0.0316 µM, first compound 3 µM) was 74.9%. It also gave a viability, T/C [14] of 96.9%, a viability, T/C [15] of 96.4% and a viability, T/C [16] of 97.5%. It also gave a viability, T/C [17] of 95.6%, a viability, T/C (second compound 0.1 µM, first compound 0.949 µM) of 84.3% and a viability, T/C (second compound 0.1 µM, first compound 3 µM) of 70.8%. For the same molecule, the viability, T/C [18] was 93.5%, the viability, T/C [19] was 94.2% and the viability, T/C [20] was 90.2%. For the same molecule, the viability, T/C [21] was 85.4%, the viability, T/C (second compound 0.316 µM, first compound 0.949 µM) was 78.7% and the viability, T/C (second compound 0.316 µM, first compound 3 µM) was 72.5%. It also gave a viability, T/C [22] of 97.5%, a viability, T/C [23] of 92.8% and a viability, T/C [24] of 92.7%. The viability, T/C [25] was 84.7%, the viability, T/C (second compound 1 µM, first compound 0.949 µM) was 87.6% and the viability, T/C (second compound 1 µM, first compound 3 µM) was 76%.
Molecule `NC(=O)C(=Cn1cnc(-c2cc(C(F)(F)F)cc(C(F)(F)F)c2)n1)c1cncnc1` + CNC(C)C(=O)NC1CN(S(=O)(=O)c2cccc(S(=O)(=O)N3CCC4CCC(C(=O)NC(c5ccccc5)c5ccccc5)N4C(=O)C(NC(=O)C(C)NC)C3)c2)CCC2CCC(C(=O)NC(c3ccccc3)c3ccccc3)N2C1=O has an IC50 [1] of 0.0106 µM, an IC50 [2] of 0.0143 µM and an IC50 [3] of 0.0129 µM. For the same molecule, the IC50 [4] was 0.0111 µM, the IC50 [5] was 0.0127 µM and the viability, T/C (second compound 0.01 µM, first compound 0.000949 µM) was 93.6%. It also gave a viability, T/C (second compound 0.01 µM, first compound 0.003 µM) of 78.1%, a viability, T/C [6] of 53.5% and a viability, T/C [7] of 23.7%. It also gave a viability, T/C [8] of 11.5%, a viability, T/C [9] of 0.44% and a viability, T/C (second compound 0.0316 µM, first compound 0.000949 µM) of 77.6%. The viability, T/C (second compound 0.0316 µM, first compound 0.003 µM) was 79.4%, the viability, T/C [10] was 57.8% and the viability, T/C [11] was 32.5%. For the same molecule, the viability, T/C [12] was 9.75%, the viability, T/C [13] was 0.64% and the viability, T/C (second compound 0.1 µM, first compound 0.000949 µM) was 76.4%. For the same molecule, the viability, T/C (second compound 0.1 µM, first compound 0.003 µM) was 68.2%, the viability, T/C [14] was 58.9% and the viability, T/C [15] was 28.8%. The viability, T/C [16] was 7.63%, the viability, T/C [17] was 0.48% and the viability, T/C (second compound 0.316 µM, first compound 0.000949 µM) was 91.1%. For the same molecule, the viability, T/C (second compound 0.316 µM, first compound 0.003 µM) was 73.5%, the viability, T/C [18] was 55.1% and the viability, T/C [19] was 29.3%. The viability, T/C [20] was 6.77%, the viability, T/C [21] was 0.44% and the viability, T/C (second compound 1 µM, first compound 0.000949 µM) was 88.1%. For the same molecule, the viability, T/C (second compound 1 µM, first compound 0.003 µM) was 79.8%, the viability, T/C [22] was 56.3% and the viability, T/C [23] was 29.9%. The viability, T/C [24] was 5.98% and the viability, T/C [25] was 0.56%.
In the case of `O=C(c1cc(Cc2n[nH]c(=O)c3ccccc23)ccc1F)N1CCN(C(=O)C2CC2)CC1`, the viability, T/C (compound 0.0316 µM) is reported as 87.4% and 98% and 105%, the viability, T/C (compound 0.1 µM) is reported as 90.4% and 103% and 91.2% and the viability, T/C (compound 0.316 µM) is reported as 86.4% and 63% and 94.2%. The viability, T/C (compound 1 µM) was 78.5% and 87.6% and 98.6%, the viability, T/C (compound 3.16 µM) was 46.7% and 54.1% and 59.5% and the viability, T/C (compound 10 µM) was 15.5% and 12.1% and 11.8%. For the same molecule, the IC50 (curve of compound) was 2.81 µM and 3.51 µM and 3.97 µM.
